Experimental data as given in US20250127907A1, “PARP INHIBITORS” (Stablix, Inc., priority 2023, published 2025).
pIC50: −log10 of the molar value. Like-named read-outs stand apart in the source and are kept apart here.

Experiments:
A2780 cells = experiment: Cell proliferation assay (A2780); format: cell-based; details: 7 days
PARP1 [1] = biological target: T1, PARP1 (Homo sapiens, UniProt P09874); experiment: PARP trapping assay in U2OS cells; format: cell-based; parameters: endogenous in cells; host or cells: U2OS
Outline: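 U2OS cells co-treated with compounds and MMS for 4 h, then soluble proteins extracted with 0.5% Triton X-100, MeOH-fixed and immunostained for PARP1. Chromatin-bound PARP1 quantified as AF488 intensity per DAPI-segmented nucleus; potencies reported as letter-code bins.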
Target sequence in this assay (P09874 whole entry): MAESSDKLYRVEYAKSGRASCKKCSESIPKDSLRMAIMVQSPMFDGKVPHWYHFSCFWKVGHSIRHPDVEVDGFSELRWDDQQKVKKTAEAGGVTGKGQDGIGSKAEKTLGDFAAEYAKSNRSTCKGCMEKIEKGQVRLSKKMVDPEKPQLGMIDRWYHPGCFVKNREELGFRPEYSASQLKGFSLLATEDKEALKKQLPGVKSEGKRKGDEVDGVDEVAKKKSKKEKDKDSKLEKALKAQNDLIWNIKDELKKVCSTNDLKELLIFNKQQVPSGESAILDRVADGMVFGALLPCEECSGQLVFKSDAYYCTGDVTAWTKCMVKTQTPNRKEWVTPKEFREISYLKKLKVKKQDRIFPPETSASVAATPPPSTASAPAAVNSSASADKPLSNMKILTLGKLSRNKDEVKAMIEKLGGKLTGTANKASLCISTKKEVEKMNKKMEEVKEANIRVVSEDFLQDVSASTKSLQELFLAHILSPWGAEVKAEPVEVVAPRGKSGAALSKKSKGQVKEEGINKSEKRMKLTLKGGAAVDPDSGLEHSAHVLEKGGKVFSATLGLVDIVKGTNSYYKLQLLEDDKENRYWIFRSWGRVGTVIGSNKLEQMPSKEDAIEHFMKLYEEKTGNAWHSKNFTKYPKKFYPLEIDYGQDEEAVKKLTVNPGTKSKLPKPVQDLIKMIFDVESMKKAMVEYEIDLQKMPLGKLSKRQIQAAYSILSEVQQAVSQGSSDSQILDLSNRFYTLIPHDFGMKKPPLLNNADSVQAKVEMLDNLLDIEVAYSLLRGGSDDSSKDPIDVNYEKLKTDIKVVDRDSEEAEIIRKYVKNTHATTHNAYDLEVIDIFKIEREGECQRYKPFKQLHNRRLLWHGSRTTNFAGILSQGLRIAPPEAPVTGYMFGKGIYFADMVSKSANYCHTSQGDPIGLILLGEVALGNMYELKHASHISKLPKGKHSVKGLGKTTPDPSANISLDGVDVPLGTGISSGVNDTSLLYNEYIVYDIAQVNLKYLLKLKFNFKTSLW

MDA-MB-436 cells = experiment: Cell proliferation assay (MDA-MB-436); format: cell-based; details: 7 days
PARP1 [2] = biological target: T1, PARP1; experiment: PARP1-enzyme assay (NAD/NADH-Glo biochemical assay); details: recombinant PARP1, NAD+ consumption
Procedure: The PARP enzyme catalyzes the transfer of ADP-Ribose from NAD+ onto PAR chains/histone substrates. The catalytic cycle is monitored indirectly with the NAD/NADH-Glo Assay kit from Promega. […] NAD+ consumed is determined by comparison to the no enzyme control.
• Recombinant PARP1 • NAD+/NAHD-Glow assay Kit • Activated DNA, 10 μg/mL • NAD+(Nicotinamide Adenine Dinucleotide), 500 nM • Protein substrate for PARP1: Core Histone from chicken, 10 μg/mL
The letter codes for the PARP1-enzyme assay include: A (<1 nM), B (>1-10 nM), C (>10-100 nM), D (>100-1000 nM), E (>1000 nM), and “-” is not tested. The letter codes for the PARP trapping assay, and parylation assay include: A (<10 nM), B (>10-100 nM), C (>100-1000 nM), […], E (>10000 nM), and “-” is not tested.
Target sequence in this assay (P09874 whole entry, species assumed): as the sequence (P09874 whole entry) above

[3] = test system: Poly/Mono-ADP Ribose in U2OS cells; experiment: PAR in cell western assay (parylation) in U2OS cells; format: cell-based; details: read-out: Parylation (U2OS)
Outline: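 U2OS cells treated with compound for 6 h, then 2 mM H2O2 for 10 min to induce DNA damage. After methanol fixation, cells stained overnight at 4 °C with anti-mono/poly-ADP-ribose antibody and imaged by infrared in-cell western, normalized to CellTag 700; reported as % control inhibition.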

HCC1806 cells = experiment: Cell proliferation assay (HCC1806); format: cell-based; details: Homo sapiens, 168 h, 7 days
[4] = U2OS cells, MMS, 4 hrs, read-out: PARP Trapping (U2OS)
[5] = Homo sapiens, U2OS cells, 6 hrs, 2 mM H2O2

SMILES | pIC50 (A2780 cells; Homo sapiens, 168 h) | pIC50 (PARP1 [1]; [4]) | pIC50 (MDA-MB-436 cells; Homo sapiens, 168 h) | pIC50 (PARP1 [2]) | pIC50 [3, 5] | pIC50 (HCC1806 cells) | pIC50 (A2780 cells) | pIC50 (MDA-MB-436 cells) | pIC50 ([3]; U2OS cells, 6 hrs, 2 mM H2O2) | pIC50 (PARP1 [1]) | pIC50 ([3]; Homo sapiens, U2OS, 6 h)
O=C(N[C@@H](C(=O)N1CCN(CC2CCN(CC(=O)N3CCN(C(=O)c4cc(Cc5n[nH]c(=O)c6ccccc56)ccc4F)CC3)CC2)CC1)C1CCCCC1)c1cccc([C@@H]2CCCN(C(=O)CNC3CC3)C2)c1 [Compound I-365] | 5.00 to 6.00 | 6.00 to 7.00 | 7.00 to 8.00 | > 9.00 | 7.00 to 8.00 | – | – | – | – | – | –
O=C(N[C@@H](C(=O)N1CCN(CC2CCN(CC(=O)N3CCN(C(=O)c4cc(Cc5n[nH]c(=O)c6ccccc56)ccc4F)CC3)CC2)CC1)C1CCCCC1)c1cc(C2CCCN(C(=O)CNCc3ccc(F)cc3F)C2)ccc1F (some centres unmarked) [Compound I-346] | 6.00 to 7.00 | 6.00 to 7.00 | 7.00 to 8.00 | > 9.00 | 7.00 to 8.00 | – | – | – | – | – | –
O=C(N[C@@H](C(=O)N1CCN(CC2CCN(CC(=O)N3CCN(C(=O)c4cc(Cc5n[nH]c(=O)c6ccccc56)ccc4F)CC3)CC2)CC1)C1CCCCC1)c1cccc([C@H]2CCCN(C(=O)CNCc3ccc(F)cc3F)C2)c1 [Compound I-294] | 6.00 to 7.00 | 6.00 to 7.00 | 7.00 to 8.00 | 8.00 to 9.00 | 7.00 to 8.00 | – | – | – | – | – | –
COC12CCC(CNCC(=O)N3CCCC(c4cccc(C(=O)N[C@@H](C(=O)N5CCN(CC6CCN(CC(=O)N7CCN(C(=O)c8cc(Cc9n[nH]c(=O)c%10ccccc9%10)ccc8F)CC7)CC6)CC5)C5CCCCC5)c4)C3)(CC1)OC2 (some centres unmarked) [Compound I-157] | – | 6.00 to 7.00 | 7.00 to 8.00 | > 9.00 | 6.00 to 7.00 | > 8.00 | – | – | – | – | –
CCc1cccc(-c2cnc(C(=O)N3CCC(CN4CCN(CC(=O)N5CCN(C(=O)c6cc(Cc7n[nH]c(=O)c8ccccc78)ccc6F)CC5)CC4)CC3)c(NC)c2)c1 [Compound I-418] | 6.00 to 7.00 | 6.00 to 7.00 | > 8.00 | > 9.00 | 6.00 to 7.00 | – | – | – | – | – | –
CCc1cccc(-c2cnc(C(=O)N3CCN(CC4CCN(CC(=O)N5CCN(C(=O)c6cc(Cc7n[nH]c(=O)c8ccccc78)ccc6F)CC5)CC4)CC3)c(NC(=O)CNCc3cc(C)no3)c2)c1 [Compound I-233] | – | 6.00 to 7.00 | 7.00 to 8.00 | > 9.00 | 7.00 to 8.00 | > 8.00 | – | – | – | – | –
CCc1cccc(-c2cnc(C(=O)NCCCCCNCC(=O)N3CCN(C(=O)c4cc(Cc5n[nH]c(=O)c6ccccc56)ccc4F)CC3)c(NC(=O)CNCc3cccc(C)c3)c2)c1 [Compound I-64] | 6.00 to 7.00 | 6.00 to 7.00 | 7.00 to 8.00 | > 9.00 | 6.00 to 7.00 | – | – | – | – | – | –
O=C(CNC1CC1)N1CCCC(c2cccc(C(=O)N3CCN(CC45CCC(C(=O)N6CCN(C(=O)c7cc(Cc8n[nH]c(=O)c9ccccc89)ccc7F)CC6)(CC4)CO5)CC3)c2)C1 (centres unmarked) [Compound I-377] | 7.00 to 8.00 | 7.00 to 8.00 | > 8.00 | > 9.00 | 7.00 to 8.00 | – | – | – | – | – | –
CCOc1cc(OC)ccc1CNCC(=O)N1CCCC(c2cccc(C(=O)N[C@@H](C(=O)NCc3cn(CCNCC(=O)N4CCN(C(=O)c5cc(Cc6n[nH]c(=O)c7ccccc67)ccc5F)CC4)nn3)C3CCCCC3)c2)C1 (some centres unmarked) [Compound I-29] | – | – | 5.00 to 6.00 | > 9.00 | > 8.00 | > 8.00 | – | – | – | – | –
CCc1cccc(-c2cnc(C(=O)N3CCC(CN4CCN(CC(=O)N5CCN(C(=O)c6cc(Cc7n[nH]c(=O)c8ccccc78)ccc6F)CC5)CC4)CC3)c(NC3CC3)c2)c1 [Compound I-407] | 7.00 to 8.00 | 7.00 to 8.00 | > 8.00 | > 9.00 | 7.00 to 8.00 | – | – | – | – | – | –
CCc1cccc(-c2cnc(C(=O)N3CCN(CC4CCN(CC(=O)N5CCN(C(=O)c6cc(Cc7n[nH]c(=O)c8ccccc78)ccc6F)CC5)CC4)CC3)c(NC(=O)CNCc3ccncn3)c2)c1 [Compound I-238] | 5.00 to 6.00 | 6.00 to 7.00 | 7.00 to 8.00 | > 9.00 | 6.00 to 7.00 | – | – | – | – | – | –
O=C(N[C@@H](C(=O)N1CCN(CC2CCN(CC(=O)N3CCN(C(=O)c4cc(Cc5n[nH]c(=O)c6ccccc56)ccc4F)CC3)CC2)CC1)C1CCCCC1)c1cccc(C2CCCN(C(=O)COC3CC3)C2)c1 (some centres unmarked) [Compound I-353] | 6.00 to 7.00 | 6.00 to 7.00 | 7.00 to 8.00 | > 9.00 | 6.00 to 7.00 | – | – | – | – | – | –
CCc1cccc(-c2cnc(C(=O)N3CCC(CN4CCN(CC(=O)N5CCN(C(=O)c6cc(Cc7n[nH]c(=O)c8ccccc78)ccc6F)CC5)CC4)CC3)c(NC(=O)CNCc3ccc(F)cc3F)c2)c1 [Compound I-331] | 7.00 to 8.00 | 6.00 to 7.00 | 7.00 to 8.00 | > 9.00 | 7.00 to 8.00 | – | – | – | – | – | –
CCOc1cc(OC)ccc1CNCC(=O)N1CCCC(c2cccc(C(=O)N[C@@H](C(=O)NCCOCCOCCOCCOCCNCC(=O)N3CCN(C(=O)c4cc(Cc5n[nH]c(=O)c6ccccc56)ccc4F)CC3)C3CCCCC3)c2)C1 (some centres unmarked) [Compound I-31] | – | – | 6.00 to 7.00 | > 9.00 | > 8.00 | > 8.00 | – | – | – | – | –
O=C(N[C@@H](C(=O)N1CCN(CC2CCN(CC(=O)N3CCN(C(=O)c4cc(Cc5n[nH]c(=O)c6ccccc56)ccc4F)CC3)CC2)CC1)C1CCCCC1)c1cccc(C2CCCN(C(=O)CNC3CC3)C2)c1 (some centres unmarked) [Compound I-183] | 6.00 to 7.00 | 6.00 to 7.00 | 7.00 to 8.00 | > 9.00 | 6.00 to 7.00 | – | – | – | – | – | –
O=C(N[C@@H](C(=O)N1CCN(CC2CCN(CC(=O)N3CCN(C(=O)c4cc(Cc5n[nH]c(=O)c6ccccc56)ccc4F)CC3)CC2)CC1)C1CCCCC1)c1cccc(C2CCCN(C(=O)CNCc3ccc(F)cc3F)C2)c1 (some centres unmarked) [Compound I-184] | 6.00 to 7.00 | 6.00 to 7.00 | 7.00 to 8.00 | > 9.00 | 6.00 to 7.00 | – | – | – | – | – | –
CCOc1cc(OC)ccc1CNCC(=O)N1CCC[C@H](c2cccc(C(=O)N[C@@H](C(=O)N3CCC(CN4CCN(CC(=O)N5CCN(C(=O)c6cc(Cc7n[nH]c(=O)c8ccccc78)ccc6F)CC5)CC4)CC3)C3CCCCC3)c2)C1 [Compound I-168] | – | 7.00 to 8.00 | – | > 9.00 | – | – | 7.00 to 8.00 | > 8.00 | 6.00 to 7.00 | – | –
O=C(N[C@@H](C(=O)N1CCN(CC2CCN(CC(=O)N3CCN(C(=O)c4cc(Cc5n[nH]c(=O)c6ccccc56)ccc4F)CC3)CC2)CC1)C1CCCCC1)c1cc(C2CCCN(C(=O)CNC3CC3)C2)ccc1F (some centres unmarked) [Compound I-323] | 6.00 to 7.00 | – | > 8.00 | > 9.00 | – | – | – | – | – | 6.00 to 7.00 | 6.00 to 7.00
CCc1cccc(-c2cnc(C(=O)N3CCC(OC4CCN(CC(=O)N5CCN(C(=O)c6cc(Cc7n[nH]c(=O)c8ccccc78)ccc6F)CC5)CC4)CC3)c(NC(C)=O)c2)c1 [Compound I-404] | 7.00 to 8.00 | 6.00 to 7.00 | > 8.00 | > 9.00 | 7.00 to 8.00 | – | – | – | – | – | –
CCc1cccc(-c2cnc(C(=O)N3CCC(CN4CCN(CC(=O)N5CCN(C(=O)c6cc(Cc7n[nH]c(=O)c8ccccc78)ccc6F)CC5)CC4)CC3)c(OC(F)(F)F)c2)c1 [Compound I-420] | 6.00 to 7.00 | 7.00 to 8.00 | > 8.00 | > 9.00 | 6.00 to 7.00 | – | – | – | – | – | –
